Assay results published in patent US20240190838A1, “LZK-TARGETING DEGRADERS AND METHODS OF USE” (The U.S.A., as represented by the Secretary, Department of …, priority 2020, published 2024).
Where a SMILES comes first, the peptide text is derived from it. The star is where a group is joined. Cbz = O=C(OCc1ccccc1)*

System: c-MYC
Assay: c-MYC levels in CAL33 and BICR56 cells depleted of LZK
Format: cell-based
Conditions: 10 μM for six hours; LZK depleted 48 hours
Procedure: CAL33 and BICR56 inducible knockdown cells were generated by SIRION Biotech. MSK921 was generated in-house using lentiviral particles provided by SIRION (generated by transfection of 293TN cells with expression vectors and lentiviral packaging plasmids). Transduction occurred at MOI 5 with 8 μg/mL polybrene. After 24 hours, medium was replaced with fresh medium containing puromycin (Invitrogen) to select for cells that had been effectively transduced. shRNA sequences were […] (sh1; SEQ ID NO: 19) and […] (sh2; SEQ ID NO: 20). The lentiviral expression plasmid was pCLVi(3G)-MCS-Puro, which expresses a doxycycline-responsive transactivator and the shRNA from the same vector. Expression of the transactivator is constitutive, while shRNA expression depends on a doxycycline-inducible promoter. […]
Generally, cells were plated in six-well or 35-mm plates for 24 hours, after which doxycycline was added or treatment with specific inhibitor was administered using 50 FBS media for 48 hours. […] Protein concentrations were determined from the cell lysate by using 660 nm Protein Assay Reagent (Pierce). […] The membranes were incubated with the specific antibodies overnight in […] at 4° C. followed by a 1 hour incubation with the appropriate horseradish peroxidase-conjugated secondary antibodies and signal was detected by chemiluminescence (Thermo Fisher).

With `CC(C)C[C@@H](C=O)NC(=O)[C@H](CC(C)C)NC(=O)[C@H](CC(C)C)NC(=O)OCc1ccccc1` [MG132] (Cbz-Leu-Leu-Leu-aldehyde) the “c-MYC levels in LZK-depleted cells” value was “rescued decreases in the c-MYC levels”.
